The record followed here is paper PMC11992225, “Antibacterial compounds against non-growing and intracellular bacteria” (npj Antimicrobials and Resistance, 2025).

For assay [1], the system named is E. coli CFT073 (UPEC). The assay is described as follows: MIC, standard microdilution assay, growing UPEC. The assay is classed as cell-based, Escherichia coli. Particulars: Escherichia coli, E. coli. The gist of the method:
(§1)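 Broth microdilution was used throughout. UPEC, P. aeruginosa and S. aureus were tested in CA-MHB buffered with 40 mM HEPES (pH 7.4); UPEC was additionally tested in LPM with 30 mM MES (pH 5.5). S. flexneri was grown in TSB. All determinations were run in triplicate.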

For assay [2], the system named is P. aeruginosa DSM1117. In words: MIC, standard microdilution assay, growing P. aeruginosa. Particulars: Pseudomonas aeruginosa, DSM1117, P. aeruginosa. The assay is classed as cell-based, Pseudomonas aeruginosa. In a few lines: as §1
For orientation: In broth dilution the organism is exposed to a series of concentrations in liquid medium.

For assay [3], the system named is S. aureus DSM2569. The assay is described as follows: MIC, standard microdilution assay, growing S. aureus. It is filed as cell-based, Staphylococcus aureus. Conditions: Staphylococcus aureus, DSM2569; S. aureus; CA-MHB pH 7.4; read-out: MIC (μM) CA-MHB. In a few lines:
as §1

In assay [4] the test system is S. flexneri 5a M90T. In words: MIC in tryptic soy broth, S. flexneri. The assay is classed as cell-based, Shigella flexneri. Conditions: Shigella flexneri, 5AM90T, read-out: MIC (μM) TSB. The gist of the method:
as §1

The subject of assay [5] is non-growing UPEC CFT073. The assay is described as follows: Dilution-regrowth assay (screen, hit validation, dose-response) on stationary-phase UPEC. The assay is classed as cell-based, Escherichia coli. Particulars: for Regrowth: OD600 after dilution into drug-free medium (mean): OD600 at 6h or 8h; for EC50: Escherichia coli, E. coli, pH 7.4, regrowth delay of non-growing bacteria, 1:4 CA-MHB, 24 h treatment, OD600 6 h after 2500-fold dilution, read-out: EC50. In a few lines:
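Regrowth (OD600 after 6 h, 37 °C) of diluted non-growing CFT073, following 24 h compound treatment of 24 h stationary cultures, defines activity relative to untreated control. Screen at 20 µM, validation at 20, 10, 5 µM (duplicates), dose–response in three biological replicates fitted by five-parameter logistic.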

Assay [6] concerns non-growing P. aeruginosa DSM1117. In words: Dilution-regrowth assay (OD600, start-growth-time) on stationary-phase P. aeruginosa. It is filed as cell-based, Pseudomonas aeruginosa. Particulars: P. aeruginosa; for Regrowth: OD600 after dilution into drug-free medium (mean): OD600 at 6h or 8h; for EC50: Pseudomonas aeruginosa, DSM1117, regrowth delay of non-growing bacteria, 1:4 CA-MHB pH 7.4, 24 h treatment, OD600 8 h after dilution, read-out: EC50. In a few lines:
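Start-growth-time was taken as the point where OD600, recorded every 20 min at 37 °C over about 20 h of regrowth, passed 0.12. Before that, non-growing cultures in HEPES-buffered 1:4 CA-MHB (pH 7.4) were exposed for 24 h, with compounds at 20 μM in preliminary runs.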

Setting [7] is: pH 7.4, 1:4 diluted CA-MHB, read-out: MIC (μM) 1:4 CA-MHB.
Where [8] appears, read: pH 7.4, CA-MHB, read-out: MIC (μM) CA-MHB.
Where [9] appears, read: 1:4 diluted CA-MHB pH 7.4, read-out: MIC (μM) 1:4 CA-MHB.
Setting [10] is: CA-MHB pH 7.4, read-out: MIC (μM) CA-MHB.

Values after ≈ are worked out from the molar mass of the structure shown. Where two headings read alike, the source gives them in different places.

Consider `CO[C@H]1/C=C/O[C@@]2(C)Oc3c(C)c(O)c4c(c3C2=O)C2=NC3(CCN(CC(C)C)CC3)NC2=C(NC(=O)/C(C)=C\C=C\[C@H](C)[C@H](O)[C@@H](C)[C@@H](O)[C@@H](C)[C@H](OC(C)=O)[C@@H]1C)C4=O` [Rifabutin], for which the MIC in assay [1] (LPM pH 5.5, read-out: MIC) stood at 2 µM (≈ 1.69 µg/mL); in assay [1] (setting [7]), 0.625 µM (≈ 0.529 µg/mL); in assay [1] (setting [8]), 8 µM (≈ 6.78 µg/mL); in assay [2] (setting [9]), 10 µM (≈ 8.47 µg/mL); in assay [2] (setting [10]) it was 40 µM (≈ 33.9 µg/mL); in assay [3], 0.025 µM (≈ 0.0212 µg/mL). Also, the MIC in assay [4] was 32 µM (≈ 27.1 µg/mL). In addition, the “Regrowth: OD600 after dilution into drug-free medium (mean)” value was found to be 0.656 in assay [5] (E. coli in 1:4 CA-MHB (pH 7.4), concentration 0.25); 0.633 in assay [5] (E. coli in 1:4 CA-MHB (pH 7.4), concentration 0.5); 0.623 in assay [5] (E. coli in 1:4 CA-MHB (pH 7.4), concentration 1); 0.617 in assay [5] (E. coli in 1:4 CA-MHB (pH 7.4), concentration 2.5); 0.605 in assay [5] (E. coli in 1:4 CA-MHB (pH 7.4), concentration 5); 0.612 in assay [5] (E. coli in 1:4 CA-MHB (pH 7.4), concentration 10). Besides, the “Regrowth: OD600 after dilution into drug-free medium (mean)” value in assay [5] (E. coli in LPM (pH 5.5), concentration 0.25) came out at 0.569; in assay [5] (E. coli in LPM (pH 5.5), concentration 0.5), 0.563; in assay [5] (E. coli in LPM (pH 5.5), concentration 1), 0.555; in assay [5] (E. coli in LPM (pH 5.5), concentration 2.5), 0.521; in assay [5] (E. coli in LPM (pH 5.5), concentration 5), 0.497; in assay [5] (E. coli in LPM (pH 5.5), concentration 10), 0.485. Further, the “Regrowth: OD600 after dilution into drug-free medium (mean)” value in assay [6] (concentration 0.1) is 0.637; in assay [6] (concentration 0.5) it was 0.579; in assay [6] (concentration 2.5) it was 0.109; in assay [6] (concentration 10), 0.093. For the same compound, the EC50 in assay [6] was determined as 942 nM.

`COc1c(N2CCNC(C)C2)c(F)cc2c(=O)c(C(=O)O)cn(C3CC3)c12` (stereo not drawn) [Gatifloxacin]: the MIC in assay [1] (setting [8]) came out at 0.125 µM (≈ 0.0469 µg/mL); in assay [2] (setting [9]), 4 µM (≈ 1.5 µg/mL); in assay [2] (setting [10]), 4 µM (≈ 1.5 µg/mL); in assay [3], 0.5 µM (≈ 0.188 µg/mL); in assay [4] it was 0.0312 µM (≈ 0.0117 µg/mL). The EC50 came out at 709 nM in assay [5] and 182 nM in assay [6].

As for `CC[C@H]1OC(=O)C[C@@H](O)[C@H](C)[C@@H](O[C@@H]2O[C@H](C)C[C@H](N(C)C)[C@H]2O)[C@@H](CC=O)C[C@@H](C)C(=O)/C=C/[C@]2(C)O[C@H]2[C@@H]1C` [Rosamicin], the MIC is 6.25 µM (≈ 3.64 µg/mL) in assay [1] (setting [7]); 25 µM (≈ 14.5 µg/mL) in assay [1] (setting [8]); 100 µM (≈ 58.2 µg/mL) in assay [2] (setting [9]); above 100 µM in assay [2] (setting [10]); 2 µM (≈ 1.16 µg/mL) in assay [3]; 16 µM (≈ 9.31 µg/mL) in assay [4]. Further, the EC50 in assay [5] was found to be 858 nM; in assay [6], 2300 nM.

By MIC is commonly meant the lowest concentration that inhibits growth of the organism. One may read the EC50 as the concentration needed to bring the measured effect to its halfway point.
